Measurements taken from patent US20220211678A1, “USES OF (+)-A-DIHYDROTETRABENAZINE IN METHODS OF TREATING MOVEMENT DISORDER” (ADEPTIO PHARMACEUTICALS LIMITED, priority 2017, published 2022).

Tests used:
VMAT2 [1] = biological target: T1, VMAT2 (Homo sapiens, UniProt Q05940); experiment: % VMAT2 blocking by PET scan 6-7 hours after oral dosing of human volunteers (Example 1B); assay type: in vivo; conditions: for reduction of level of VMAT2 blocking after 6-7 hours compared to 1-2 hours following administration: 7.5 mg
T1 construct: from tissue; host or cells: brain of living human volunteers, measured by PET
T1 sequence (Q05940 whole entry): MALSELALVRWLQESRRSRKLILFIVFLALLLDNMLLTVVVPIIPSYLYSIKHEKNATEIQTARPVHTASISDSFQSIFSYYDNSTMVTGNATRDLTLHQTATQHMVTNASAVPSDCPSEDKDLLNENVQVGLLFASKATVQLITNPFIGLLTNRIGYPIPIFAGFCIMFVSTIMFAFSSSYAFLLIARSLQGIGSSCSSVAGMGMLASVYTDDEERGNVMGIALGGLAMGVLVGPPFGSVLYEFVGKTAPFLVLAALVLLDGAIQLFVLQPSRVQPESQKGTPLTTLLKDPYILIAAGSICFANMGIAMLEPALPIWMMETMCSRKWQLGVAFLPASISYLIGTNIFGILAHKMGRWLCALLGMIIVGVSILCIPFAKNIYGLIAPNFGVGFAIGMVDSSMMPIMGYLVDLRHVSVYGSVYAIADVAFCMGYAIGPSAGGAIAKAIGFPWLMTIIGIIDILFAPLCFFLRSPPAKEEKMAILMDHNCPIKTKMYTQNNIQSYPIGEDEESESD
Text: (§1) Complete blocking of VMAT2 is considered undesirable as this can lead to unwanted side effects, such as Parkinsonism. […] The levels of VMAT2 blocking can be determined by competitive binding studies using Positron Emission Tomography (PET). By co-administering a radioactive ligand with the compound of interest at various concentrations, the proportion of binding sites occupied can be determined (see for example, Matthews et al., “Positron emission tomography molecular imaging for drug development”, Br. J. Clin. Pharmacol., 73:2, 175-186). Accordingly, the invention also provides:
(§2) Volunteers 1 and 2 were the same as volunteers 1 and 2 in Example 1A described above. […] Blood sample were taken from all volunteers 1 to 3 at 2, 4, 6 and 7 hours after drug administration. In addition, in all volunteers PET scans were initiated at 6 hours after drug administration and these were stopped at 7 hours after drug administration.

[2] = Plasma levels of (+)-α-dihydrotetrabenazine up to 3 hours after oral dosing of human volunteers (Example 1A); assay type: in vivo; conditions: 7.5 mg oral, 0.5 h
Experimental: […] […] Blood samples were not taken from the fifth volunteer. At 60 minutes after drug administration, PET scans were initiated and these were stopped at 120 minutes after drug administration. The experiment was carried out at dosages of 7.5 mg, 15 mg and 22.5 mg.

VMAT2 [3] = biological target: T1, VMAT2; experiment: % VMAT2 blocking by PET scan 60-120 minutes after oral dosing of human volunteers (Example 1A); assay type: in vivo
Text: as §1
In four of the volunteers, blood sample were taken at 30, 60, 120 and 180 minutes after drug administration. Blood samples were not taken from the fifth volunteer. At 60 minutes after drug administration, PET scans were initiated and these were stopped at 120 minutes after drug administration.
The experiment was carried out at dosages of 7.5 mg, 15 mg and 22.5 mg.

[4] = Plasma levels of (+)-α-dihydrotetrabenazine up to 7 hours after oral dosing of human volunteers (Example 1B); assay type: in vivo; conditions: 7.5 mg, 7.5 mg oral
Experimental: as §2

[5] = test system: non-amphetamine induced rats; experiment: Locomotor activity and stereotypic behaviour in non-amphetamine induced rats, open field arena (Example 2, Study 3); assay type: in vivo, rat; conditions: Study 3, non-induced rats; (+)-α-DHTBZ 2.5 mg/kg or 5 mg/kg, risperidone 1 mg/kg
Experimental: All animal experiments were carried out according to the National Institute of Health (NIH) guidelines for the care and use of laboratory animals, and approved by the National Animal Experiment Board, Finland. Male CD (Charles River Laboratories, Germany) at weight range of 200-250 g (165-200 g upon arrival) were used for the experiments. Animals were housed at a standard temperature (22±1° C.) and in a light-controlled environment (lights on from 7 am to 8 pm) with ad libitum access to food and water.
Locomotor activity of the rats was tested in open field arena. The open field test was performed during the rat light cycle and under a normal lighting evenly distributed to the test chambers. The paths of the rats were recorded by activity monitor (Med. Associates Inc.).
Dosing the vehicle, vehicle-amphetamine, (+)-α-DHTBZ or risperidone was done prior to LMA test. The rats were placed in the centre of the arena, and the path was recorded for 60 minutes.
Animals were grouped as follows: • Group 1: 10 rats treated with Vehicle • Group 2: 10 rats treated with (+)-α-DHTBZ 2.5 mg/kg • Group 3: 10 rats treated with (+)-α-DHTBZ 5 mg/kg • Group 4: 10 rats treated with risperidone 1 mg/kg

With COc1cc2c(cc1OC)[C@H]1C[C@@H](O)[C@H](CC(C)C)CN1CC2 [(+)-α-dihydrotetrabenazine, (R,R,R)-3-isobutyl-9,10-dimethyloxy-1,3,4,5,7,11b-hexahydro-2H-pyrido[2,1-a]isoquinolin-2-ol] as the molecule, how does the “% VMAT2 blocking” value (VMAT2 [1]; 7.5 mg oral, PET scan 6-7 hours after administration, subject 1 (112 kg)) read?
The value was 38%.

And the “% VMAT2 blocking” value (VMAT2 [1]; 7.5 mg oral, PET scan 6-7 hours after administration, subject 2 (76 kg))?
The value was 65%.

What about the “% VMAT2 blocking” value (VMAT2 [1]; 7.5 mg oral, PET scan 6-7 hours after administration, subject 3 (76 kg)) of the same molecule?
Its value is 41%.

And the “% VMAT2 blocking” value (VMAT2 [1]; 7.5 mg oral, PET scan 6-7 hours after administration, subject 4 (95 kg))?
The value was 34%.

What about the “% VMAT2 blocking” value (VMAT2 [1]; 7.5 mg oral, PET scan 6-7 hours after administration, subject 5 (99 kg)) of the same molecule?
Its value is 36%.

What about the “reduction of level of VMAT2 blocking after 6-7 hours compared to 1-2 hours following administration” value (VMAT2 [1]; subject 1) of the same molecule?
Its value is 30%.

What about the “reduction of level of VMAT2 blocking after 6-7 hours compared to 1-2 hours following administration” value (VMAT2 [1]; subject 2) of the same molecule?
The value was 11%.

What about the “% VMAT2 blocking” value (VMAT2 [1]; after 6 hours following administration of 7.5 mg) of the same molecule?
Its value is “greater than 30%”.

What about the “plasma concentration of (+)-α-dihydrotetrabenazine” value ([2]; subject 1 (112 kg)) of the same molecule?
Its value is “BLQ”.

And the “plasma concentration of (+)-α-dihydrotetrabenazine” value ([2]; subject 6 (68 kg))?
Its value is “BLQ”.

What about the “% VMAT2 blocking” value (VMAT2 [3]; 7.5 mg oral, PET scan 60-120 min after administration, subject 1 (112 kg)) of the same molecule?
Its value is 54%.

And the “% VMAT2 blocking” value (VMAT2 [3]; 7.5 mg oral, PET scan 60-120 min after administration, subject 2 (76 kg))?
The value was 73%.

What about the “% VMAT2 blocking” value (VMAT2 [3]; 7.5 mg oral, PET scan 60-120 min after administration, subject 3 (129 kg)) of the same molecule?
Its value is 62%.

And the “% VMAT2 blocking” value (VMAT2 [3]; 7.5 mg oral, PET scan 60-120 min after administration, subject 4 (59 kg))?
Its value is 84%.

And the “% VMAT2 blocking” value (VMAT2 [3]; 7.5 mg oral, PET scan 60-120 min after administration, subject 5 (91 kg))?
The value was 73%.

And the “% VMAT2 blocking” value (VMAT2 [3]; 7.5 mg oral, PET scan 60-120 min after administration, subject 6 (68 kg))?
Its value is 60%.

And the “% VMAT2 blocking” value (VMAT2 [3]; 15 mg oral, PET scan 60-120 min after administration, subject 1 (112 kg))?
Its value is 73%.

What about the “% VMAT2 blocking” value (VMAT2 [3]; 15 mg oral, PET scan 60-120 min after administration, subject 2 (76 kg)) of the same molecule?
Its value is 83%.

And the “% VMAT2 blocking” value (VMAT2 [3]; 15 mg oral, PET scan 60-120 min after administration, subject 3 (129 kg))?
The value was 69%.

What about the “% VMAT2 blocking” value (VMAT2 [3]; 15 mg oral, PET scan 60-120 min after administration, subject 4 (59 kg)) of the same molecule?
Its value is 89%.

What about the “% VMAT2 blocking” value (VMAT2 [3]; 15 mg oral, PET scan 60-120 min after administration, subject 5 (91 kg)) of the same molecule?
The value was 79%.

What about the “% VMAT2 blocking” value (VMAT2 [3]; 15 mg oral, PET scan 60-120 min after administration, subject 6 (68 kg)) of the same molecule?
Its value is 76%.

And the “% VMAT2 blocking” value (VMAT2 [3]; 22.5 mg oral, PET scan 60-120 min after administration, subject 1 (112 kg))?
Its value is 75%.

And the “% VMAT2 blocking” value (VMAT2 [3]; 22.5 mg oral, PET scan 60-120 min after administration, subject 2 (76 kg))?
Its value is 82%.

What about the “% VMAT2 blocking” value (VMAT2 [3]; 22.5 mg oral, PET scan 60-120 min after administration, subject 3 (129 kg)) of the same molecule?
Its value is 74%.

What about the “% VMAT2 blocking” value (VMAT2 [3]; 22.5 mg oral, PET scan 60-120 min after administration, subject 5 (91 kg)) of the same molecule?
The value was 82%.

What about the “% VMAT2 blocking” value (VMAT2 [3]; 22.5 mg oral, PET scan 60-120 min after administration, subject 6 (68 kg)) of the same molecule?
The value was 62%.

And the “% VMAT2 blocking” value (VMAT2 [3]; heavier individuals, doses as low as 7.5 mg)?
Its value is “at least 50%”.

What about the concentration at 2 h ([4]; subject 1 (112 kg)) of the same molecule?
Its concentration at 2 h is 6.01 ng/mL.

And the concentration at 2 h ([4]; subject 2 (76 kg))?
Its concentration at 2 h is 17.5 ng/mL.

What about the concentration at 2 h ([4]; subject 3 (76 kg)) of the same molecule?
Its concentration at 2 h is 7.92 ng/mL.

What about the concentration at 4 h ([4]; subject 1 (112 kg)) of the same molecule?
The concentration at 4 h was 4.54 ng/mL.

And the concentration at 4 h ([4]; subject 2 (76 kg))?
Its concentration at 4 h is 4.54 ng/mL.

What about the concentration at 4 h ([4]; subject 3 (76 kg)) of the same molecule?
The concentration at 4 h was 5.57 ng/mL.

What about the concentration at 6 h ([4]; subject 1 (112 kg)) of the same molecule?
The concentration at 6 h was 3.65 ng/mL.

And the concentration at 6 h ([4]; subject 2 (76 kg))?
Its concentration at 6 h is 3.65 ng/mL.

What about the concentration at 6 h ([4]; subject 3 (76 kg)) of the same molecule?
The concentration at 6 h was 4.84 ng/mL.

What about the concentration at 7 h ([4]; subject 1 (112 kg)) of the same molecule?
The concentration at 7 h was 8.7 ng/mL.

What about the concentration at 7 h ([4]; subject 2 (76 kg)) of the same molecule?
Its concentration at 7 h is 11.7 ng/mL.

What about the concentration at 7 h ([4]; subject 3 (76 kg)) of the same molecule?
Its concentration at 7 h is 12.8 ng/mL.

What about the “total movement compared to rats treated with the vehicle” value [5] of the same molecule?
Its value is “comparable”.

And the “total stereotypic behaviour compared to rats treated with the vehicle” value [5]?
The value was “comparable”.
